Laboratory results reported in patent publication US20230105457A1, “Immunogenic Compounds For Treatment Of Adrenal Cancer” (ENTEROME S.A., priority 2019, published 2023).

Tests used:
[1] = test system: CD8 T cells from PBMC of HLA-A*02 healthy donors; test: Detection of peptide-specific CD8 T cells with pMHC multimers after in vitro amplification (Example 14); type: cell-based, human; conditions: one HLA-A2 healthy donor, after in vitro amplification with bacteria peptide loaded T2 cells
Protocol: Identification and quantification of T cells specific clones were performed using peptide MHC multimers (pMHC). pMHC multimers are recombinantly produced and coupled with fluorescent labels. Binding of pMHC multimers to T cells allows identification and sorting by flow cytometry of specific T cells harboring TCRs able to specifically recognize selected pMHC complexes.
In vitro amplification method and specific pMHC multimers have been used for identification of IL13RA2-L-, BIRC5-B1- and FOXM1-B2-specific T cells. pMHC multimers were generated for all the bacteria peptides and their respective human counterpart. PBMCs from several HLA-A*02 healthy donors (up to 19 donors) were collected, enriched after CD137 and CD8 selection and subjected to multiple rounds of in vitro amplification with bacteria peptides loaded T2 cells to increase the number of specific T cell clones. Detection of bacteria and human peptide-specific CD8 T cells using cytometry analysis with the fluorescent multimer was performed on enriched CD8 T cell populations.

[2] = test system: splenocytes of β/A2/DR3 mice; test: ELISPOT-IFNγ assay on splenocytes of vaccinated β/A2/DR3 mice (Example 2); type: in vivo, mouse; conditions: label = vaccination peptide
Source text: Briefly, 14 β/A2/DR3 mice were assigned randomly (based on mouse sex and age) to two experimental groups, each immunized with a specific vaccination peptide (vacc-pAg) combined to a common helper peptide (h-pAg) (as outlined in Table 7 below). The vacc-pAg were compared in couples (group 1 vs. group 2). Thereby, both native and optimized versions of a single peptide were compared in each wave.
The animals were immunized on day 0 (d0) with a prime injection, and on d14 with a boost injection. Each mouse was injected s.c. at tail base with 100 μL of an oil-based emulsion that contained: • 100 μg of vacc-pAg (25 μL of 4 mg/mL stock per mouse); • 150 μg of h-pAg (15 μL of 10 mg/mL stock per mouse); • 10 μL of PBS to reach a total volume of 50 μL (per mouse); • Incomplete Freund's Adjuvant (IFA) added at 1:1 (v:v) ratio (50 μL per mouse).
A separate emulsion was prepared for each vacc-pAg, as follows: IFA reagent was added to the vacc-pAg/h-pAg/PBS mixture in a 15 mL tube and mixed on vortex for repeated cycles of 1 min until forming a thick emulsion.
Seven days after the boost injection (i.e. on d21), the animals were euthanized and the spleen was harvested. Splenocytes were prepared by mechanical disruption of the organ followed by 70 μm-filtering and Ficoll density gradient purification.
The splenocytes were immediately used in an ELISPOT-IFNγ assay (Table 8). Experimental conditions were repeated in quadruplets, using 2*105 total splenocytes per well, and were cultured in presence of vacc-pAg (10 μM), Concanavalin A (ConA, 2.5 μg/mL) or medium-only to assess for their capacity to secrete IFNγ. The commercial ELISPOT-IFNγ kit (Diaclone Kit Mujrine IFNγ ELISpot) was used following the manufacturer's instructions, and the assay was performed after about 16 h of incubation.
Spots were counted on a Grand ImmunoSpot® S6 Ultimate UV Image Analyzer interfaced to the ImmunoSpot 5.4 software (CTL-Europe). Data plotting and statistical analysis were performed with the Prism-5 software (GraphPad Software Inc.).
The cell suspensions were also analyzed by flow cytometry, for T cell counts normalization. The monoclonal antibody cocktail (data not shown) was applied on the purified leucocytes in presence of Fc-block reagents targeting murine (1:10 diluted ‘anti-mCD16/CD32 CF11 clone’—internal source) Fc receptors. Incubations were performed in 96-well plates, in the dark and at 4° C. for 15-20 minutes. The cells were washed by centrifugation after staining to remove the excess of monoclonal antibody cocktail, and were re-suspended in PBS for data acquisition.
The data were then normalized as a number of specific spots (the average counts obtained in the ‘medium only’ condition being subtracted) per 10^6 total T cells.
The individual average values (obtained from the quadruplicates) were next used to plot the group average values (see FIG. 3A). As the functional capacity of T cells might vary from individual to individual, the data were also expressed as the percentage of the ConA response per individual (see FIG. 3B).

WLPFGFILI [IL13RA2-H, reference compound]
Peptide-specific CD8 T cells detected (pMHC multimer) [1]: 0.22%
Percentage of ConA-induced response (mean+/−SEM), ELISPOT-IFNγ ([2]; ex vivo restimulation with IL13RA2-B pAg (10 μM)): 2.0%+/−0.8
Percentage of ConA-induced response (mean+/−SEM), ELISPOT-IFNγ ([2]; ex vivo restimulation with IL13RA2-H pAg (10 μM)): 1.1%+/−0.8
